Reference: US8952024B2, “Herbicidal pyrimidone derivatives” (E I du Pont de Nemours and Company, priority 2009, dated 2015)

Legend:
Format in all cases: in vivo
[1] = tested on: bermudagrass (Cynodon dactylon); assay: Test B pre-/postemergence plant response; conditions: for Bermudagrass plant response rating (0 to 100 scale): 62 g ai/ha, 0 is no effect, 13 to 15 days
Outline: (§1)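 Plants treated either at seeding (loam/sand soil) or postemergence at 2 to 18 cm height, using a surfactant-containing non-phytotoxic solvent formulation. Evaluation was visual after 13 to 15 days, 0 to 100 scale relative to controls.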

[2] = tested on: blackgrass (Alopecurus myosuroides); assay: Test B pre-/postemergence plant response; conditions: for Blackgrass plant response rating (0 to 100 scale): 62 g ai/ha, 0 is no effect, 13 to 15 days
Outline: as §1

[3] = tested on: cocklebur (Xanthium strumarium); assay: Test B pre-/postemergence plant response; conditions: for Cocklebur plant response rating (0 to 100 scale): 62 g ai/ha, 0 is no effect, 13 to 15 days
Outline: as §1

corn (Zea mays) = assay: Test B pre-/postemergence plant response; conditions: for Corn plant response rating (0 to 100 scale): 62 g ai/ha, 0 is no effect, 13 to 15 days
Outline: as §1

[4] = tested on: giant foxtail (Setaria faberii); assay: Test B pre-/postemergence plant response; conditions: for Foxtail, Giant plant response rating (0 to 100 scale): 62 g ai/ha, 0 is no effect, 13 to 15 days
Outline: as §1

[5] = tested on: johnsongrass (Sorghum halepense); assay: Test B pre-/postemergence plant response; conditions: for Johnsongrass plant response rating (0 to 100 scale): 62 g ai/ha, 0 is no effect, 13 to 15 days
Outline: as §1

kochia (Kochia scoparia) = assay: Test B pre-/postemergence plant response; conditions: for Kochia plant response rating (0 to 100 scale): 62 g ai/ha, 0 is no effect, 13 to 15 days
Outline: as §1

[6] = tested on: morningglory (Ipomoea coccinea); assay: Test B pre-/postemergence plant response; conditions: for Morningglory plant response rating (0 to 100 scale): 62 g ai/ha, 0 is no effect, 13 to 15 days
Outline: as §1

soybean (Glycine max) = assay: Test B pre-/postemergence plant response; conditions: for Soybean plant response rating (0 to 100 scale): 62 g ai/ha, 0 is no effect, 13 to 15 days
Outline: as §1

wild oat (Avena fatua) = assay: Test B pre-/postemergence plant response; conditions: for Oat, Wild plant response rating (0 to 100 scale): 62 g ai/ha, 0 is no effect, 13 to 15 days
Outline: as §1

[7] = tested on: canarygrass (Phalaris minor); assay: Test B postemergence plant response; conditions: for Canarygrass plant response rating (0 to 100 scale): 62 g ai/ha, 0 is no effect, 13 to 15 days
Outline: (§2)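 Plants grown in peat/vermiculite medium were sprayed postemergence at 2–18 cm height (1- to 4-leaf stage). After 13–15 days in the greenhouse, response was rated visually against untreated controls on a 0–100 scale (0 no effect, 100 complete control).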

[8] = tested on: chickweed (Stellaria media); assay: Test B postemergence plant response; conditions: for Chickweed plant response rating (0 to 100 scale): 62 g ai/ha, 0 is no effect, 13 to 15 days
Outline: as §2

[9] = tested on: windgrass (Apera spica-venti); assay: Test B postemergence plant response; conditions: for Windgrass plant response rating (0 to 100 scale): 62 g ai/ha, 0 is no effect, 13 to 15 days
Outline: as §2

[10] = tested on: winter barley (Hordeum vulgare); assay: Test B postemergence plant response; conditions: for Barley plant response rating (0 to 100 scale): 62 g ai/ha, 0 is no effect, 13 to 15 days
Outline: as §2

[11] = 31 g ai/ha, postemergence, scale 0 to 100, 0 is no effect, 100 is complete control
[12] = postemergence, 100 is complete control
[13] = Postemergence, 125 g ai/ha, visual rating after 13 to 15 days, scale 0 (no effect) to 100 (complete control)
[14] = Postemergence, 250 g ai/ha, scale 0 to 100 (0 no effect, 100 complete control)

Cc1ccc(-c2ncc(C(=O)C3=C(O)CCCC3=O)c(=O)n2-c2ccccc2)cc1 [Compound 80]
Plant response rating, Bermudagrass [1, 11]: 20 | Bermudagrass plant response rating (0 to 100 scale) [1, 12]: 40 | Plant response rating, Bermudagrass [1, 13]: 45 | Plant response rating, Bermudagrass [1, 14]: 55 | Plant response rating, Blackgrass [2, 11]: 0 | Blackgrass plant response rating (0 to 100 scale) [2, 12]: 0 | Plant response rating, Blackgrass [2, 13]: 5 | Plant response rating, Blackgrass [2, 14]: 10 | Plant response rating, Cocklebur [3, 11]: 0 | Cocklebur plant response rating (0 to 100 scale) [3, 12]: 10 | Plant response rating, Cocklebur [3, 13]: 45 | Plant response rating, Cocklebur [3, 14]: 65 | Plant response rating, Corn (corn (Zea mays); [11]): 5 | Corn plant response rating (0 to 100 scale) (corn (Zea mays); [12]): 35 | Plant response rating, Corn (corn (Zea mays); [13]): 65 | Plant response rating, Corn (corn (Zea mays); [14]): 65 | Plant response rating, Foxtail, Giant [4, 11]: 75 | Foxtail, Giant plant response rating (0 to 100 scale) [4, 12]: 90 | Plant response rating, Foxtail, Giant [4, 13]: 95 | Plant response rating, Foxtail, Giant [4, 14]: 95 | Plant response rating, Johnsongrass [5, 11]: 0 | Johnsongrass plant response rating (0 to 100 scale) [5, 12]: 0 | Plant response rating, Johnsongrass [5, 13]: 10 | Plant response rating, Johnsongrass [5, 14]: 45 | Plant response rating, Kochia (kochia (Kochia scoparia); [11]): 0 | Kochia plant response rating (0 to 100 scale) (kochia (Kochia scoparia); [12]): 20 | Plant response rating, Kochia (kochia (Kochia scoparia); [13]): 20 | Plant response rating, Kochia (kochia (Kochia scoparia); [14]): 60 | Plant response rating, Morningglory [6, 11]: 85 | Morningglory plant response rating (0 to 100 scale) [6, 12]: 100 | Plant response rating, Morningglory [6, 13]: 100 | Plant response rating, Morningglory [6, 14]: 100 | Plant response rating, Soybean (soybean (Glycine max); [11]): 75 | Soybean plant response rating (0 to 100 scale) (soybean (Glycine max); [12]): 80 | Plant response rating, Soybean (soybean (Glycine max); [13]): 90 | Plant response rating, Soybean (soybean (Glycine max); [14]): 95 | Plant response rating, Oat, Wild (wild oat (Avena fatua); [11]): 20 | Oat, Wild plant response rating (0 to 100 scale) (wild oat (Avena fatua); [12]): 30 | Plant response rating, Oat, Wild (wild oat (Avena fatua); [13]): 40 | Plant response rating, Oat, Wild (wild oat (Avena fatua); [14]): 50 | Plant response rating, Canarygrass [7, 11]: 45 | Canarygrass plant response rating (0 to 100 scale) [7, 12]: 50 | Plant response rating, Canarygrass [7, 13]: 50 | Plant response rating, Canarygrass [7, 14]: 70 | Plant response rating, Chickweed [8, 11]: 90 | Chickweed plant response rating (0 to 100 scale) [8, 12]: 98 | Plant response rating, Chickweed [8, 13]: 100 | Plant response rating, Chickweed [8, 14]: 100 | Plant response rating, Windgrass [9, 11]: 50 | Windgrass plant response rating (0 to 100 scale) [9, 12]: 60 | Plant response rating, Windgrass [9, 13]: 70 | Plant response rating, Windgrass [9, 14]: 80 | Plant response rating, Barley [10, 11]: 15 | Barley plant response rating (0 to 100 scale) [10, 12]: 30 | Plant response rating, Barley [10, 13]: 30 | Plant response rating, Barley [10, 14]: 75

Cc1ccccc1-c1ncc(C(=O)C2=C(O)CCCC2=O)c(=O)n1-c1ccccc1 [Compound 82]
Plant response rating, Bermudagrass [1, 11]: 80 | Bermudagrass plant response rating (0 to 100 scale) [1, 12]: 85 | Plant response rating, Bermudagrass [1, 13]: 85 | Plant response rating, Bermudagrass [1, 14]: 95 | Plant response rating, Blackgrass [2, 11]: 0 | Blackgrass plant response rating (0 to 100 scale) [2, 12]: 0 | Plant response rating, Blackgrass [2, 13]: 5 | Plant response rating, Blackgrass [2, 14]: 15 | Plant response rating, Cocklebur [3, 11]: 85 | Cocklebur plant response rating (0 to 100 scale) [3, 12]: 90 | Plant response rating, Cocklebur [3, 13]: 95 | Plant response rating, Cocklebur [3, 14]: 100 | Plant response rating, Corn (corn (Zea mays); [11]): 0 | Corn plant response rating (0 to 100 scale) (corn (Zea mays); [12]): 5 | Plant response rating, Corn (corn (Zea mays); [13]): 5 | Plant response rating, Corn (corn (Zea mays); [14]): 15 | Plant response rating, Foxtail, Giant [4, 11]: 75 | Foxtail, Giant plant response rating (0 to 100 scale) [4, 12]: 80 | Plant response rating, Foxtail, Giant [4, 13]: 95 | Plant response rating, Foxtail, Giant [4, 14]: 95 | Plant response rating, Johnsongrass [5, 11]: 65 | Johnsongrass plant response rating (0 to 100 scale) [5, 12]: 80 | Plant response rating, Johnsongrass [5, 13]: 80 | Plant response rating, Johnsongrass [5, 14]: 95 | Plant response rating, Kochia (kochia (Kochia scoparia); [11]): 10 | Kochia plant response rating (0 to 100 scale) (kochia (Kochia scoparia); [12]): 60 | Plant response rating, Kochia (kochia (Kochia scoparia); [13]): 65 | Plant response rating, Kochia (kochia (Kochia scoparia); [14]): 75 | Plant response rating, Morningglory [6, 11]: 65 | Morningglory plant response rating (0 to 100 scale) [6, 12]: 100 | Plant response rating, Morningglory [6, 13]: 100 | Plant response rating, Morningglory [6, 14]: 100 | Plant response rating, Soybean (soybean (Glycine max); [11]): 75 | Soybean plant response rating (0 to 100 scale) (soybean (Glycine max); [12]): 90 | Plant response rating, Soybean (soybean (Glycine max); [13]): 95 | Plant response rating, Soybean (soybean (Glycine max); [14]): 98 | Plant response rating, Oat, Wild (wild oat (Avena fatua); [11]): 0 | Oat, Wild plant response rating (0 to 100 scale) (wild oat (Avena fatua); [12]): 0 | Plant response rating, Oat, Wild (wild oat (Avena fatua); [13]): 5 | Plant response rating, Oat, Wild (wild oat (Avena fatua); [14]): 10 | Plant response rating, Canarygrass [7, 11]: 0 | Canarygrass plant response rating (0 to 100 scale) [7, 12]: 0 | Plant response rating, Canarygrass [7, 13]: 15 | Plant response rating, Canarygrass [7, 14]: 35 | Plant response rating, Chickweed [8, 11]: 90 | Chickweed plant response rating (0 to 100 scale) [8, 12]: 90 | Plant response rating, Chickweed [8, 13]: 98 | Plant response rating, Chickweed [8, 14]: 100 | Plant response rating, Windgrass [9, 11]: 5 | Windgrass plant response rating (0 to 100 scale) [9, 12]: 5 | Plant response rating, Windgrass [9, 13]: 20 | Plant response rating, Windgrass [9, 14]: 50 | Plant response rating, Barley [10, 11]: 0 | Barley plant response rating (0 to 100 scale) [10, 12]: 0 | Plant response rating, Barley [10, 13]: 0 | Plant response rating, Barley [10, 14]: 5
